Each compound was assayed against mouse DPP1 enzyme (Mus musculus (Mouse), UniProt P97821) (assay: Mouse DPP1 Enzyme IC50 Assay). Details: active mouse DPP1 enzyme, H-Gly-Arg-AMC substrate, 10 min pre-incubation at 37° C., MES pH 5.5.
Sequence of mouse DPP1 enzyme (P97821 25-134): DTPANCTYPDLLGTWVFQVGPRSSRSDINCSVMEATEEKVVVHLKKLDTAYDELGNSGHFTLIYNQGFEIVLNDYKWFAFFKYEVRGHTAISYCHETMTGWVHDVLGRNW
Sequence of mouse DPP1 enzyme (P97821 231-393): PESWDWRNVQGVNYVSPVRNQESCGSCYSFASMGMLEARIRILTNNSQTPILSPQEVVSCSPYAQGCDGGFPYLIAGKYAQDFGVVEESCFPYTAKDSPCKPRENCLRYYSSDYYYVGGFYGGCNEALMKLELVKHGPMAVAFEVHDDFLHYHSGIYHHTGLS
Sequence of mouse DPP1 enzyme (P97821 394-462): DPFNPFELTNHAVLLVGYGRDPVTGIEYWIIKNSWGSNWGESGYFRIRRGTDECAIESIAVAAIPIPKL
Type: biochemical
Method: Test articles were applied to active mouse DPP1 enzyme (R&D Systems; Minneapolis, MN) in Assay Buffer (50 mM MES pH 5.5, 50 mM NaCl, 5 mM DTT) in a total reaction volume of 125 μL. 25 μL of compound in Assay Buffer plus 5% DMSO was first added to 50 μL of active mouse DPP1 enzyme at a concentration of 62.5 pg/μL and allowed to pre-incubate for 10 minutes at 37° C. after which 50 μL of 1000 μM H-Gly-Arg-AMC substrate (Bachem; St. Torrance, CA) was added, giving final substrate concentration of 400 µM and a final DMSO concentration of 1%. Substrate cleavage was measured for 90 minutes at 37° C., with fluorescence at Excitation/Emission 350/450 nm measured every 5 minutes. DPP1 concentration was interpolated based on its activity relative to a standard curve of recombinant active mouse DPP1 enzyme. IC50 values for each compound were calculated via the XLFit (IDBS Version 5.3.1.3) Add-On to Microsoft Excel using the four parameter fit equation y=(A+((B−A)/(1+ ((C/x)^D)))), which appears as equation number 205 (4 Parameter Logistic Model or Sigmoidal Dose-Response Model) in XLFit. Default constraints were used for each Parameter. IC50 was defined as the compound concentration at which 50% of enzyme activity was inhibited when compared to the no-compound control.
`Cn1c(=O)oc2ccc(-c3ccc(C[C@@H](C#N)NC(=O)[C@@H]4CNC[C@@](C)(O)CO4)cc3)cc21` (relative stereo) [Compound 2-A, (2S,6R*)—N-[(1S)-1-cyano-2-[4-(3-methyl-2-oxo-2,3-dihydro-1,3-benzoxazol-5-yl)phenyl]ethyl]-6-hydroxy-6-methyl-1,4-oxazepane-2-carboxamide] gave an IC50 of 51.7 nM.
`CO[C@@]1(C)CNC[C@@H](C(=O)N[C@H](C#N)Cc2ccc(-c3ccc4oc(=O)n(C)c4c3)cc2)OC1` (relative stereo) [Compound 3-A, (2S,6S*)—N-[(1S)-1-cyano-2-[4-(3-methyl-2-oxo-2,3-dihydro-1,3-benzoxazol-5-yl)phenyl]ethyl]-6-methoxy-6-methyl-1,4-oxazepane-2-carboxamide] gave an IC50 of 130 nM.
For `CO[C@]1(C)CNC[C@@H](C(=O)N[C@H](C#N)Cc2ccc(-c3ccc4oc(=O)n(C)c4c3)cc2)OC1` (relative stereo) [Compound 3-B, (2S,6R*)—N-[(1S)-1-cyano-2-[4-(3-methyl-2-oxo-2,3-dihydro-1,3-benzoxazol-5-yl)phenyl]ethyl]-6-methoxy-6-methyl-1,4-oxazepane-2-carboxamide], the IC50 was 251 nM.
Work on `Cn1c(=O)oc2ccc(-c3ccc(C[C@@H](C#N)NC(=O)[C@H]4CCCCCNC4)cc3)cc21` (single isomer, unassigned) yielded an IC50 of 54 nM.
Compound `Cn1c(=O)oc2ccc(-c3ccc(C[C@@H](C#N)NC(=O)[C@@H]4CNCCCCO4)cc3)cc21` (single isomer, unassigned) [drawing 490] has an IC50 of 41.4 ± 4.5 nM.
`Cn1c(=O)oc2ccc(-c3ccc(C[C@@H](C#N)NC(=O)[C@@H]4CNC[C@](C)(O)CO4)cc3)cc21` (single isomer, unassigned) [drawing 491] was tested, and the IC50 was 351 ± 223 nM.
`CC[C@@]1(O)CNC[C@@H](C(=O)N[C@H](C#N)Cc2ccc(-c3ccc4oc(=O)n(C)c4c3)cc2)OC1` (single isomer, unassigned) [drawing 492] was tested, and the IC50 was 36.9 nM.
Compound `CC[C@]1(O)CNC[C@@H](C(=O)N[C@H](C#N)Cc2ccc(-c3ccc4oc(=O)n(C)c4c3)cc2)OC1` (single isomer, unassigned) [drawing 493] has an IC50 of 4040 nM.
Work on `CC(C)[C@]1(O)CNC[C@@H](C(=O)N[C@H](C#N)Cc2ccc(-c3ccc4oc(=O)n(C)c4c3)cc2)OC1` (single isomer, unassigned) [drawing 494] yielded an IC50 of over 5000 nM.
With `Cn1c(=O)oc2ccc(-c3ccc(C[C@@H](C#N)NC(=O)[C@@H]4CNCC5(CCO5)CO4)cc3)cc21` (single isomer, unassigned) [drawing 495] the IC50 was 4.2 ± 0.8 nM.
Work on `Cn1c(=O)oc2ccc(-c3ccc(C[C@@H](C#N)NC(=O)[C@@H]4CNC[C@@]5(CCO5)CO4)cc3)cc21` (single isomer, unassigned) [drawing 496] yielded an IC50 of 2.36 ± 0.3 nM.
With `Cn1c(=O)oc2ccc(-c3ccc(C[C@@H](C#N)NC(=O)[C@@H]4CNCCCCO4)cc3)cc21` (single isomer, unassigned) [drawing 497] the IC50 was 33.9 ± 4 nM.
`CN1CC2(C1)OC(=O)c1ccc(-c3ccc(C[C@@H](C#N)NC(=O)[C@@H]4CNCCCCO4)cc3)cc12` (single isomer, unassigned) [drawing 498] showed an IC50 of 17.8 ± 2 nM.
`CCO[C@@H]1CCNC[C@@H](C(=O)N[C@H](C#N)Cc2ccc(-c3ccc4oc(=O)n(C)c4c3)cc2)OC1` (single isomer, unassigned) [drawing 499] was tested, and the IC50 was 6.05 ± 2 nM.
In the case of `Cn1c(=O)oc2ccc(-c3ccc(C[C@@H](C#N)NC(=O)C4CCCCCNC4)c(F)c3)cc21` (single isomer, unassigned) [drawing 500], the IC50 is reported as 13.1 ± 3.7 nM.
With `Cn1c(=O)oc2ccc(-c3ccc(C[C@@H](C#N)NC(=O)[C@H]4CCCCCNC4)c(F)c3)cc21` (single isomer, unassigned) [drawing 501] the IC50 was 148 ± 16 nM.
In the case of `CCO[C@@]1(C)CNC[C@@H](C(=O)N[C@H](C#N)Cc2ccc(-c3ccc4oc(=O)n(C)c4c3)cc2)OC1` (single isomer, unassigned) [drawing 503], the IC50 is reported as over 5000 nM.
Work on `CCO[C@]1(C)CNC[C@@H](C(=O)N[C@H](C#N)Cc2ccc(-c3ccc4oc(=O)n(C)c4c3)cc2)OC1` (single isomer, unassigned) [drawing 504] yielded an IC50 of 1640 nM.
Compound `CO[C@@H]1CCO[C@H](C(=O)N[C@H](C#N)Cc2ccc(-c3ccc4oc(=O)n(C)c4c3)cc2)CNC1` (single isomer, unassigned) [drawing 505] has an IC50 of 7.04 nM.
`Cn1c(=O)oc2ccc(-c3ccc(C[C@@H](C#N)NC(=O)C4CCCCCNC4)cc3)cc21` (stereo partly drawn) [IA] was tested, and the IC50 was 63.4 nM.
Compound `Cn1c(=O)oc2ccc(-c3ccc(C[C@@H](C#N)NC(=O)[C@@H]4CCCCCNC4)cc3)cc21` [drawing 502] has an IC50 of 629 nM.

What follows are compounds tested against human DPP1 enzyme (Homo sapiens (Human), UniProt P53634) (assay: Human DPP1 Enzyme IC50 Assay). Details: recombinant human DPP1 activated with cathepsin L, H-Gly-Arg-AMC substrate, 10 min pre-incubation at 37° C., MES pH 6.0.
Sequence of human DPP1 enzyme (P53634 25-134): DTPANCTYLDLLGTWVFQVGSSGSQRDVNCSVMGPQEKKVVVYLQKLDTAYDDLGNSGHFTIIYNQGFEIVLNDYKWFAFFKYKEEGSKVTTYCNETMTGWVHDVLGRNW
Sequence of human DPP1 enzyme (P53634 231-394): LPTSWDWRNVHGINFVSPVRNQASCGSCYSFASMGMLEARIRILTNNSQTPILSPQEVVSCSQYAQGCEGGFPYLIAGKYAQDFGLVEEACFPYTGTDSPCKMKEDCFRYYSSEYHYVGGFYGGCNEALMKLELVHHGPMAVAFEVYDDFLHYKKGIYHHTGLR
Sequence of human DPP1 enzyme (P53634 395-463): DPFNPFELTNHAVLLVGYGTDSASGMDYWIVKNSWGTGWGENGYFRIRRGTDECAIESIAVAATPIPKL
Type: biochemical
Method: Recombinant human DPP1 enzyme (R&D Systems; Minneapolis, MN) was first proteolytically processed into its mature form using recombinant human cathepsin L (R&D Systems) in a buffer consisting of 20 mM citric acid pH 4.5, 150 mM NaCl, 1 mM EDTA and 10 mM DTT. Test articles were applied to activated human DPP1 enzyme in Assay Buffer (25 mM MES pH 6.0, 50 mM NaCl, 5 mM DTT) in a total reaction volume of 125 μL. 25 μL of compound in Assay Buffer plus 5% DMSO was first added to 50 μL of activated human DPP1 enzyme at a concentration of 1 ng/μL and allowed to pre-incubate for 10 minutes at 37° C. after which 50 μL of 1000 μM H-Gly-Arg-AMC substrate (Bachem; St. Torrance, CA) was added, giving final substrate concentration of 400 µM and a final DMSO concentration of 1%. Substrate cleavage was measured for 90 minutes at 37° C., with fluorescence at Excitation/Emission 350/450 nm measured every 5 minutes. DPP1 concentration was interpolated based on its activity relative to a standard curve of activated human recombinant DPP1 enzyme. IC50 values for each compound were calculated via the XLFit (IDBS Version 5.3.1.3) Add-On to Microsoft Excel using the four parameter fit equation y={A+[(B−A)]/[1+((C/x)^D)]}, which appears as equation number 205 (4 Parameter Logistic Model or Sigmoidal Dose-Response Model) in XLFit. Default constraints were used for each Parameter. IC50 was defined as the compound concentration at which 50% of enzyme activity was inhibited when compared to the no-compound control.
Compound `Cn1c(=O)oc2ccc(-c3ccc(C[C@@H](C#N)NC(=O)[C@@H]4CNC[C@@](C)(O)CO4)cc3)cc21` (relative stereo) [Compound 2-A, (2S,6R*)—N-[(1S)-1-cyano-2-[4-(3-methyl-2-oxo-2,3-dihydro-1,3-benzoxazol-5-yl)phenyl]ethyl]-6-hydroxy-6-methyl-1,4-oxazepane-2-carboxamide] has an IC50 of 39.6 nM.
With `CO[C@@]1(C)CNC[C@@H](C(=O)N[C@H](C#N)Cc2ccc(-c3ccc4oc(=O)n(C)c4c3)cc2)OC1` (relative stereo) [Compound 3-A, (2S,6S*)—N-[(1S)-1-cyano-2-[4-(3-methyl-2-oxo-2,3-dihydro-1,3-benzoxazol-5-yl)phenyl]ethyl]-6-methoxy-6-methyl-1,4-oxazepane-2-carboxamide] the IC50 was 145 nM.
Work on `CO[C@]1(C)CNC[C@@H](C(=O)N[C@H](C#N)Cc2ccc(-c3ccc4oc(=O)n(C)c4c3)cc2)OC1` (relative stereo) [Compound 3-B, (2S,6R*)—N-[(1S)-1-cyano-2-[4-(3-methyl-2-oxo-2,3-dihydro-1,3-benzoxazol-5-yl)phenyl]ethyl]-6-methoxy-6-methyl-1,4-oxazepane-2-carboxamide] yielded an IC50 of 206 nM.
